# Measured values: patent publication US20140221301A1, “COMBINATION TREATMENT FOR CANCER” (priority 2011, published 2014)
# Columns and labels:
# [1] = test system: normal hematopoietic cells from G-CSF mobilized normal donors; assay: Mitochondrial membrane potential, JC-1, normal hematopoietic cells; assay type: cell-based, human; conditions: normal cells from two G-CSF mobilized donors
# Procedure: FIG. 4. Tigecycline decreases mitochondrial Cox-1 protein levels in TEX cells. (A) Cells from TEX, OCI-AML2 and two primary AML patients were treated with increasing concentrations (2.5 μM and 5 μM) of tigecycline for 36 and 48 hours of tigecycline. Total proteins were extracted and analyzed by western blotting for Cox-1, Cox-2, Cox-4, grp78, XIAP, actin and tubulin. (B) TEX and AML patient cells were treated with increasing concentrations (2.5 μM and 5 μM) of tigecycline. Cox-1, Cox-2, and Cox-4 mRNA expression relative 18S was determined by quantitative RT-PCR. Data is shown as mean±SD. […] Complex I, II and IV enzyme activity relative to citrate synthase activity was determined as described in materials and methods. […] Mitochondrial membrane potential (ΔΨ) was determined by staining cells with JC-1 dye, and flow cytometry analysis (Red/Green ratio). Reactive oxygen species generation (ROS) was determined by staining with h2-DCFDA and Dihydroethidium (DHE).
# To measure mitochondrial membrane potential, cells were treated with tigecycline similarly as described above and then washed twice with PBS and incubated with 5 μM of 5,5′,6,6′-tetrachloro-1,1′,3,3′-tetraethyl benzimidazolylcarbocyanine iodide (JC-1, Sigma-Aldrich) for 20 minutes at 37° C. Each sample was then washed twice with 1 mL PBS and resuspended in 500 μL PBS prior to being read on a BD FACSCalibur. […]
# [2] = test system: bacterial protein synthesis; conditions: cited from earlier work
# [3] = test system: normal hematopoietic cells; assay: Methylcellulose colony formation assay, normal hematopoietic cells; assay type: cell-based, human; conditions: 5 μM, normal hematopoietic cells n=5, 14 days
# Procedure: (§1) FIG. 2. Tigecycline induces cell death and inhibits clonogenic growth in primary AML cells preferential over normal hematopoietic cells. Mononuclear cells from peripheral blood of leukemia patients (blast count>80%) and normal G-CSF expanded donors was treated with increasing concentrations of tigecycline for 48 hours. Cell viability was measured by Annexin-PI flow cytometry staining. Cell viability is expressed as a mean percentage plus or minus SD (n=3) relative to DMSO-treated cells. Mononuclear cells from primary AML patient samples (A, B) and normal peripheral blood cells (C) were plated in methylcelluose with 5 μM of Tigecycline. (D) Colony forming units were counted at 7 days (AML) and 14 days (Normal) post plating. […]
# To assess clonogenic growth, primary AML cells (1.0×10^5/mL) or granulocyte colony-stimulating factor (G-CSF) mobilized PBSCs (1.0×10^5/mL) were plated in duplicate with increasing concentrations of tigecycline in MethoCult GF H4434 medium (StemCell Technologies, Vancouver, BC) containing 1% methycellulose in IMDM, 30% FCS, 1% bovine serum albumin, 3 U/mL of recombinant human erythropoietin, 10^−4 M of 2-mercaptoethanol, 2 mM of L-glutamine, 50 ng/mL of recombinant human stem cell factor, 10 ng/mL of GM-CSF, and 10 ng/mL of rh IL-3). Seven days (AML samples) or 14 days (normal PBCS) after plating, the number of colonies was counted as previously described^31.
# [4] = test system: primary normal hematopoietic cells (PBSC); assay: Cell viability by Annexin V staining, primary normal hematopoietic cells; assay type: cell-based, human; conditions: n=5, 48 hours
# Procedure: as §1
# Cell growth and viability was assessed by the MTS assay (Promega, Madison, Wis.) according to the manufacturer's instructions. Apoptosis and cell death was measured by Annexin V-fluroscein isothiocyanate (FITC; Biovision Research Products, Mountain View, Calif.), propidium iodide staining and flow cytometry according to the manufacturer's instructions and as previously described^30.
# Given the cytotoxicity of tigecycline towards leukemia cell lines, the ability of tigecycline to induce cell death in primary acute myeloid leukemia (AML) patient samples and normal hematopoietic cells was compared and evaluated. […]
smiles,measurement,setting,value
CN(C)c1cc(NC(=O)CNC(C)(C)C)c(O)c2c1C[C@H]1C[C@H]3[C@H](N(C)C)C(O)=C(C(N)=O)C(=O)[C@@]3(O)C(O)=C1C2=O [tigecycline],loss of mitochondrial membrane potential,[1],not seen
same,"inhibition of bacterial protein synthesis, fold greater than minocycline",[2]; relative to minocycline,3 fold
same,"inhibition of bacterial protein synthesis, fold greater than tetracycline",[2]; relative to tetracycline,20 fold
same,reduction of clonogenic growth,[3],34±5%
same,LD50,[4],> 10 µM
